Measurements from PubChem BioAssay (NCI).
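How tested: cells in 96-well plates exposed to compound for 48 hours at five concentrations. GI50 marks 50% less growth. TGI denotes the concentration required for complete inhibition of growth.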

Legend:
Assay in all cases: NCI-60 cell line screen, 48 h; in the data active = GI50 below about 0.43 µM; inactive = the rest
DU-145 prostate = system: DU-145 prostate
HCC-2998 colon = system: HCC-2998 colon
HL-60(TB) leukemia = system: HL-60(TB) leukemia
KM12 colon = system: KM12 colon
M14 melanoma = system: M14 melanoma
NCI-H226 lung = system: NCI-H226 lung
SK-MEL-28 melanoma = system: SK-MEL-28 melanoma
SW-620 colon = system: SW-620 colon
UO-31 renal = system: UO-31 renal
RPMI-8226 leukemia = system: RPMI-8226 leukemia

Cc1ccc([N+](=O)[O-])cc1NC(=O)C(=O)C1CCC2=C(Sc3ccccc3N2)C1=O (centres undefined)
> 100 µM: TGI (DU-145 prostate) | TGI (HCC-2998 colon) | TGI (HL-60(TB) leukemia) | TGI (KM12 colon) | TGI (M14 melanoma) | TGI (NCI-H226 lung) | TGI (SK-MEL-28 melanoma) | TGI (SW-620 colon) | TGI (UO-31 renal)

CC(=O)OCC(OC(C)=O)C(OC(C)=O)C(OC(C)=O)C(=O)CNn1c(-c2ccccc2Cl)nc2ccc(Br)cc2c1=O (centres undefined)
90.1 µM: TGI (HL-60(TB) leukemia)
> 100 µM: TGI (KM12 colon) | TGI (M14 melanoma) | TGI (RPMI-8226 leukemia) | TGI (SK-MEL-28 melanoma) | TGI (SW-620 colon) | TGI (UO-31 renal)

c1ccc(-c2[nH]c(-c3ccccc3)c(-c3cnccn3)c2-c2cnccn2)cc1
> 100 µM: TGI (HCC-2998 colon) | TGI (HL-60(TB) leukemia) | TGI (KM12 colon) | TGI (M14 melanoma) | TGI (NCI-H226 lung) | TGI (RPMI-8226 leukemia) | TGI (SK-MEL-28 melanoma) | TGI (SW-620 colon) | TGI (UO-31 renal)

CCOC(=O)/C(C#N)=C(N)/C(=N\Nc1cccc(C(F)(F)F)c1)C(=O)OCC
> 100 µM: TGI (HCC-2998 colon) | TGI (HL-60(TB) leukemia) | TGI (M14 melanoma) | TGI (NCI-H226 lung) | TGI (RPMI-8226 leukemia) | TGI (SK-MEL-28 melanoma) | TGI (SW-620 colon) | TGI (UO-31 renal)

O=C(Nc1ccccc1C(=O)O)C(=O)C(C(=O)c1ccccc1-c1ccccc1)C1OC(=O)c2ccccc21 (centres undefined)
30.6 µM: TGI (HCC-2998 colon)
35.1 µM: TGI (SK-MEL-28 melanoma)
33.6 µM: TGI (KM12 colon)
98.2 µM: TGI (RPMI-8226 leukemia)
70.6 µM: TGI (HL-60(TB) leukemia)
56.6 µM: TGI (SW-620 colon)
33.4 µM: TGI (M14 melanoma)
32.5 µM: TGI (UO-31 renal)
29.3 µM: TGI (NCI-H226 lung)

COC(=O)c1nn(C(=N)c2ccc(Cl)cc2)c2c1CCCCC2
> 100 µM: TGI (HCC-2998 colon) | TGI (HL-60(TB) leukemia) | TGI (KM12 colon) | TGI (M14 melanoma) | TGI (NCI-H226 lung) | TGI (RPMI-8226 leukemia) | TGI (SK-MEL-28 melanoma) | TGI (SW-620 colon) | TGI (UO-31 renal)

CC(=O)NS(=O)(=O)c1ccc(-n2nc(-c3ccccc3)cc2C2=CC(=O)C=CC2=O)cc1
inactive: GI50 (HL-60(TB) leukemia) > 100 µM | GI50 (KM12 colon) > 100 µM | GI50 (M14 melanoma) > 100 µM | GI50 (NCI-H226 lung) > 100 µM | GI50 (SK-MEL-28 melanoma) > 100 µM | GI50 (SW-620 colon) 36.6 µM | GI50 (UO-31 renal) > 100 µM
> 100 µM: TGI (HL-60(TB) leukemia) | TGI (KM12 colon) | TGI (M14 melanoma) | TGI (NCI-H226 lung) | TGI (SK-MEL-28 melanoma) | TGI (SW-620 colon) | TGI (UO-31 renal)

CC(=O)O[C@H]1C(=O)[C@@]2(C)C(C(OC(=O)c3ccccc3)[C@]3(O)CC(OC(=O)C(O)C(NC(=O)c4ccccc4)c4ccc(C)cc4)C(C)=C1C3(C)C)[C@]1(OC(C)=O)CO[C@@H]1C[C@@H]2O (some centres undefined)
11.5 µM: TGI (UO-31 renal)
9.9 µM: TGI (KM12 colon)
0.0256 µM: TGI (SW-620 colon)
2.55 µM: TGI (HL-60(TB) leukemia)
0.105 µM: TGI (M14 melanoma)
7.56 µM: TGI (RPMI-8226 leukemia)

O=c1cccccc1NCCNc1cccccc1=O
> 100 µM: TGI (HL-60(TB) leukemia) | TGI (KM12 colon) | TGI (M14 melanoma) | TGI (NCI-H226 lung) | TGI (RPMI-8226 leukemia) | TGI (SW-620 colon) | TGI (UO-31 renal)

Cn1c(O)c(N=NC(N)=S)c2ccccc21
inactive: GI50 (DU-145 prostate) 53.7 µM | GI50 (HCC-2998 colon) > 100 µM | GI50 (HL-60(TB) leukemia) 37.9 µM | GI50 (KM12 colon) 88.3 µM | GI50 (M14 melanoma) 95.9 µM | GI50 (NCI-H226 lung) > 100 µM | GI50 (RPMI-8226 leukemia) > 100 µM | GI50 (SK-MEL-28 melanoma) > 100 µM | GI50 (SW-620 colon) 54.6 µM
> 100 µM: TGI (DU-145 prostate) | TGI (HCC-2998 colon) | TGI (HL-60(TB) leukemia) | TGI (KM12 colon) | TGI (M14 melanoma) | TGI (NCI-H226 lung) | TGI (RPMI-8226 leukemia) | TGI (SK-MEL-28 melanoma) | TGI (SW-620 colon)

N[C@H](C(=O)O)[C@@H](Cl)CC(=O)O
> 100 µM: TGI (HCC-2998 colon) | TGI (HL-60(TB) leukemia) | TGI (KM12 colon) | TGI (M14 melanoma) | TGI (NCI-H226 lung) | TGI (RPMI-8226 leukemia) | TGI (SK-MEL-28 melanoma) | TGI (SW-620 colon) | TGI (UO-31 renal)

CCCNc1cccc(-n2ncc3c(N/N=C/c4ccncc4)ncnc32)c1
inactive: GI50 (DU-145 prostate) > 25 µM | GI50 (HCC-2998 colon) > 25 µM | GI50 (KM12 colon) 1.77 µM | GI50 (M14 melanoma) 1.69 µM | GI50 (NCI-H226 lung) > 16.5 µM | GI50 (RPMI-8226 leukemia) > 25 µM | GI50 (SK-MEL-28 melanoma) > 10 µM | GI50 (SW-620 colon) > 6.13 µM
> 25 µM: TGI (DU-145 prostate) | TGI (HCC-2998 colon) | TGI (KM12 colon) | TGI (M14 melanoma) | TGI (NCI-H226 lung) | TGI (RPMI-8226 leukemia) | TGI (SK-MEL-28 melanoma) | TGI (SW-620 colon)

CNC(C)Cc1ccc(O)cc1 (centres undefined)
> 100 µM: TGI (HCC-2998 colon) | TGI (HL-60(TB) leukemia) | TGI (KM12 colon) | TGI (M14 melanoma) | TGI (NCI-H226 lung) | TGI (RPMI-8226 leukemia) | TGI (SK-MEL-28 melanoma) | TGI (SW-620 colon) | TGI (UO-31 renal)

COc1cc2c3c(c1OC)Oc1ccc(cc1)CC1c4c(cc(OC)c(OC)c4Oc4ccc(cc4)CC3N(C)CC2)CCN1C (centres undefined)
30.4 µM: TGI (SW-620 colon)
> 100 µM: TGI (KM12 colon)
55.5 µM: TGI (NCI-H226 lung)
28 µM: TGI (HCC-2998 colon)
34.2 µM: TGI (SK-MEL-28 melanoma)
34.1 µM: TGI (HL-60(TB) leukemia)
70.4 µM: TGI (RPMI-8226 leukemia)
33.2 µM: TGI (M14 melanoma)
31.4 µM: TGI (UO-31 renal)

CC1=NN(C(=O)c2cc(Cl)cc([N+](=O)[O-])c2)C(=O)C1N=Nc1ccccc1C(=O)O (centres undefined)
> 100 µM: TGI (HCC-2998 colon) | TGI (HL-60(TB) leukemia) | TGI (KM12 colon) | TGI (NCI-H226 lung) | TGI (RPMI-8226 leukemia) | TGI (SK-MEL-28 melanoma) | TGI (SW-620 colon) | TGI (UO-31 renal)

O=C(c1ccccc1)c1ccccc1C(=O)c1ccccc1
> 100 µM: TGI (DU-145 prostate) | TGI (HL-60(TB) leukemia) | TGI (KM12 colon) | TGI (M14 melanoma) | TGI (NCI-H226 lung) | TGI (SK-MEL-28 melanoma) | TGI (SW-620 colon)
85.3 µM: TGI (HCC-2998 colon)
inactive: GI50 (DU-145 prostate) 88.1 µM | GI50 (HCC-2998 colon) 32.3 µM | GI50 (HL-60(TB) leukemia) 53.7 µM | GI50 (KM12 colon) 36.2 µM | GI50 (M14 melanoma) 31.9 µM | GI50 (NCI-H226 lung) 52.3 µM | GI50 (SK-MEL-28 melanoma) 30.9 µM | GI50 (SW-620 colon) 55.8 µM

CC(C)N(Cc1ccccc1)S(=O)(=O)c1n[nH]c(C(C)(C)C)n1
> 100 µM: TGI (DU-145 prostate) | TGI (HL-60(TB) leukemia) | TGI (KM12 colon) | TGI (M14 melanoma) | TGI (NCI-H226 lung) | TGI (RPMI-8226 leukemia) | TGI (SK-MEL-28 melanoma) | TGI (SW-620 colon) | TGI (UO-31 renal)

C=C(C)[C@@H]1CC[C@]2(C)[C@H](CC=C3[C@@H]4[C@H](C)[C@@H](C)CC[C@]4(CO)CC[C@]32C)[C@@]1(C)CCCN
1.65 µM: TGI (KM12 colon)
1.67 µM: TGI (SK-MEL-28 melanoma)
1.76 µM: TGI (M14 melanoma)
18.3 µM: TGI (NCI-H226 lung)
2.24 µM: TGI (UO-31 renal)
1.62 µM: TGI (HCC-2998 colon)
3.01 µM: TGI (DU-145 prostate)
inactive: GI50 (DU-145 prostate) 1.21 µM | GI50 (HCC-2998 colon) 0.873 µM | GI50 (HL-60(TB) leukemia) 1.03 µM | GI50 (KM12 colon) 0.908 µM | GI50 (M14 melanoma) 0.846 µM | GI50 (NCI-H226 lung) 6.72 µM | GI50 (SK-MEL-28 melanoma) 0.952 µM | GI50 (SW-620 colon) 1.01 µM | GI50 (UO-31 renal) 0.823 µM
2.27 µM: TGI (HL-60(TB) leukemia)
2.11 µM: TGI (SW-620 colon)

COc1cc(C(=O)C/C(CCC(=O)Nc2ccc(Cl)cc2Cl)=N/Nc2nnc(C)n2N)ccc1O
> 100 µM: TGI (HCC-2998 colon) | TGI (HL-60(TB) leukemia) | TGI (KM12 colon) | TGI (M14 melanoma) | TGI (NCI-H226 lung) | TGI (RPMI-8226 leukemia) | TGI (SK-MEL-28 melanoma) | TGI (SW-620 colon) | TGI (UO-31 renal)
